For one assay, the target named is rat orexin 1 receptor (Rattus norvegicus, UniProt P56718). Nature of the assay: Rat orexin 1 receptor radioligand binding. The conditions noted are these: HEK293 cells stably expressing rat orexin 1 receptor; competitive radioligand binding, apparent Ki; read-out: rOX1 Ki. On the procedure: (§1) Rat and Human Orexin 1 Receptor Radioligand Binding Studies
(§2) After centrifugation (2K×G, 5 min at 4° C.), the supernatant was aspirated and the pellets frozen and stored at −80° C. […] Each cell pellet from a 15 cm plate was resuspended in 10 mL, stored on ice, and homogenized for 45 sec prior to addition to the reactions. […] The final concentration of DMSO in the reactions is equal to or less than 0.1%. Total and nonspecific binding was determined in the absence and presence of 10 μM almorexant. The total volume of each reaction is 200 μL (20 μL of diluted compounds, 80 μL of [^3H]-(1-(5-(2-fluoro-phenyl)-2-methyl-thiazol-4-yl)-1-((S)-2-(5-phenyl-(1,3,4)oxadiazol-2-ylmethyl)-pyrrolidin-1-yl)-methanone) diluted in PBS and 100 μL of the cell suspension). […] The plates were washed 3 times by aspirating 30 ml PBS through the plates. Plates were dried in 55° C. oven for 60 min, scintillation fluid was added, and the radioactivity was counted on a Topcount (Packard).

A further assay concerns the target human orexin 2 receptor (Homo sapiens (Human), UniProt O43614). Put plainly: Human orexin 2 receptor radioligand binding. The conditions noted are these: HEK293 stably expressing human orexin 2 receptor; [3H]-EMPA competitive binding, apparent Ki; read-out: hOX2 Ki. On the procedure: Human Orexin 2 Receptor Radioligand Binding Studies
as §2, with “sec just” for “sec”, “reactions. Competition binding experiments in 96 well polypropylene plates were performed using [^3H]-EMPA (Moraveck Corporation, specific activity=29.6 Ci/mmol), diluted to a 5 nM concentration in PBS (2 nM final concentration).” for “reactions.”, “[^3H]-EMPA” for “[^3H]-(1-(5-(2-fluoro-phenyl)-2-methyl-thiazol-4-yl)-1-((S)-2-(5-phenyl-(1,3,4)oxadiazol-2-ylmethyl)-pyrrolidin-1-yl)-methanone)”

A further assay concerns the target human orexin 1 receptor (Homo sapiens, UniProt O43613). Put plainly: Human orexin 1 receptor radioligand binding. The conditions noted are these: CHO cells stably expressing human orexin 1 receptor; competitive radioligand binding, apparent Ki; read-out: hOX1 Ki. On the procedure: as §1, §2

This passage reports Ki results from patent publication US8969352B2, “Substituted 2-azabicycles and their use as orexin receptor modulators” (Janssen Pharmaceutica NV, priority 2013, dated 2015).

human orexin 2 receptor, sequence (O43614 whole entry): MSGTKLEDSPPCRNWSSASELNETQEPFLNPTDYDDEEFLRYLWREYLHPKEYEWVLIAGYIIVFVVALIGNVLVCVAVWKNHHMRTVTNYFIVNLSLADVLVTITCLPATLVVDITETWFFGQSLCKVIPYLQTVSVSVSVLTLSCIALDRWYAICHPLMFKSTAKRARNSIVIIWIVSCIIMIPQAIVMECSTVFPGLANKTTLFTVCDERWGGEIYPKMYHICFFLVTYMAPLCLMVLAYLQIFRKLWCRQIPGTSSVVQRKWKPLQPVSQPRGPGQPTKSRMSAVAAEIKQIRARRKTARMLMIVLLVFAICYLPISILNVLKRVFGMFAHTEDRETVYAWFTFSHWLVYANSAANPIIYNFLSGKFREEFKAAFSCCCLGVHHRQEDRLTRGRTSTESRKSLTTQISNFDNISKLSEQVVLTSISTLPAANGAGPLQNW

`O=C(c1ccc(F)cc1-n1nccn1)N1C[C@H]2C[C@@H](Oc3ccc(C(F)(F)F)cn3)[C@@H]1C2` [Example 44, (4-fluoro-2-(2H-1,2,3-triazol-2-yl)phenyl)((1S,4R,6R)-6-((5-(trifluoromethyl)pyridin-2-yl)oxy)-2-azabicyclo[2.2.1]heptan-2-yl)methanone]: the figures for the Ki on rat orexin 1 receptor, on human orexin 2 receptor and on human orexin 1 receptor were 22 nM, 2200 nM and 42 nM, respectively.

`O=C(c1ccccc1-n1nccn1)N1C[C@H]2C[C@@H](Oc3ccc(Br)cn3)[C@@H]1C2` [Example 49, (2-(2H-1,2,3-triazol-2-yl)phenyl)((1S,4R,6R)-6-((5-bromopyridin-2-yl)oxy)-2-azabicyclo[2.2.1]heptan-2-yl)methanone]: the Ki is 6 nM on rat orexin 1 receptor, 507 nM at human orexin 2 receptor and 6 nM on human orexin 1 receptor.

Turning to `O=C(c1cccc(F)c1-c1ncccn1)N1C[C@H]2C[C@@H](Oc3ccc(Br)cn3)[C@@H]1C2` [Example 48, ((1S,4R,6R)-6-((5-bromopyridin-2-yl)oxy)-2-azabicyclo[2.2.1]heptan-2-yl)(3-fluoro-2-(pyrimidin-2-yl)phenyl)methanone], the Ki was 3 nM on rat orexin 1 receptor, 972 nM at human orexin 2 receptor and 6 nM at human orexin 1 receptor.
